Reference: patent publication US7741032B2, “Genotyping assay to predict gamma glutamyl hydrolase (GGH) activity” (St. Jude Children's Research Hospital, Inc., priority 2004, dated 2010)

Experiments:
[1] = molecular target: T1, T127I variant GGH (Homo sapiens, UniProt Q92820, T151I); test: Enzyme kinetic analysis of heterologously expressed wild-type and T127I variant GGH with MTX-PG as substrate; assay type: biochemical; conditions: recombinant GGH, substrate as labelled; for catalytic efficiency (Vmax/Km) reduction of T127I variant: versus wild-type, p=0.003
T1 construct: A cDNA encoding the 294 amino acids of human GGH (with out leading peptide) was cloned by RT-PCR; made in house; host or cells: E. coli BL21(DE3)pLysS
T1 sequence (Q92820 25-318 T151I): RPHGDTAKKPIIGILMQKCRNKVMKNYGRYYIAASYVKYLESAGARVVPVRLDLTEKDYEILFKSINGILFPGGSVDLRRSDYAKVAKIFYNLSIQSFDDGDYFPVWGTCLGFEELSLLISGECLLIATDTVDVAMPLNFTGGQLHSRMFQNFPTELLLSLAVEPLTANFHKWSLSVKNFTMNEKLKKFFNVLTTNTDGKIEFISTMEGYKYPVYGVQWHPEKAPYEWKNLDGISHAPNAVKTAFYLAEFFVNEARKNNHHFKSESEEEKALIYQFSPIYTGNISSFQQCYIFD
Procedure: Wild-type human GGH cloning and site-directed mutagenesis: A cDNA encoding the 294 amino acids of human GGH (with out leading peptide) was cloned by RT-PCR and TA cloning (Invitrogen, Carlsbad, Calif.) using RNA isolated from human CEM cells. Plasmid DNA was purified using the mini prep kit (Qiagen, Santa Clarita, Calif.). After sequencing, the selected cDNA clone was subcloned into the pET28b vector (Novagen, Madison, Wis.) from Nde1 and BamH1 sites, and an N-terminal HisTag was added. This HisTag enabled the purification of large quantities of protein and had no effect on GGH activity (Chave, K. J. et al., 2000, id). Site-directed mutagenesis was performed with the QuickChange II kit (Stratagene, La Jolla, Calif.) according to the manufacturer's protocol. The primers used for mutagenesis of wild-type human GGH to T127I were
Expression and characterization of T127I variant GGH: Plasmids carrying wild-type and T127I variant GGH were used to transform E. coli strain BL21(DE3)pLysS competent cells (Novagen, Madison, Wis.). The E. coli cells were grown in LB medium containing 30 μg/ml kanamycin and 34 μg/ml chloramphenicol at 37° C. to OD600 about 0.6 and expression was induced with 1 mM isopropyl-β-D-thiogalactoside for 3 h. Cells were harvested by centrifugation at 5,000 g for 5 min at 4° C., and were kept as a frozen pellet at −70° C. Target proteins were extracted using BugBuster His-Bind Purification kit (Novagen, Madison, Wis.), followed by gel filtration chromatography at 4° C. on a HiLoad 26/60 S200 Superdex column (Amersham Pharmacia Biotech, Sweden) in 0.05 M sodium acetate buffer, pH5.5, containing 0.05 M 2-mercaptoethanol, 1 M NaCl, and 1 mM EDTA. Fractions containing target proteins were pooled and proteins were concentrated using Viva Cell 70 ml Concentrator, followed by Viva Cpin 2 ml Concentrator (Vivascience, Edgewood, NY).
Wild-type and T127I variant forms of human GGH were separated using NuPAGE™ 4-12% Bis-Tris Gel (Invitrogen, Carlsbad, Calif.). Protein bands were visualized by silver staining (Amersham Pharmacia Biotech, Sweden). Western blot was carried out as described (Tai, H. L. et al., “Thiopurine S-methyltransferase deficiency: two nucleotide transitions define the most prevalent mutant allele associated with loss of catalytic activity in Caucasians” Am J Hum Genet 58:694-702 (1996)). Polyclonal anti-human GGH rabbit antibody was kindly provided by Drs Thomas J. Ryan and […]. GGH activity was measured using MTEN buffer with 25 mM DTT. The assay mixture without substrate was incubated at 37° C. for 20 min, followed by incubation with substrate at 37° C. for 5 min and boiling for 5 min. In each experiment, wild-type and variant GGH were analyzed in parallel using varying concentrations of MTX-PG5 or MTX-PG2 as substrate. The substrate and the reaction products were analyzed by HPLC, and GGH activity was calculated by total amount of product formed per min per μg protein. Two independent experiments were carried on with each substrate. Nonlinear least-squares regression was used to estimate Km and Vmax by fitting a Michaels-Menten model as described earlier (Panetta, J. C. et al., id).

[2] = molecular target: T2, GGH (Homo sapiens, UniProt Q92820, T151I); conditions: MTXPG2 as the substrate; reported by Chave et al. 2003; cited from earlier work
T2 sequence (Q92820 25-318 T151I): T1 sequence (Q92820 25-318 T151I)

| difference in Vmax between the wild-type and T127I variant [1] | Km increase of T127I variant compared to wild-type GGH ([1]; p=0.021) | catalytic efficiency (Vmax/Km) reduction of T127I variant [1] | catalytic efficiency (Vmax/Km) reduction of T127I variant ([1]; listed as MTXPG5) | difference in Km between the wild-type and T127I variant [1] | difference in catalytic efficiency between the wild-type and T127I variant [1] | Structure (SMILES) | effect of T127I mutation on GGH activity [2] |
| --- | --- | --- | --- | --- | --- | --- | --- |
| not a significant difference | 2.7 fold | 67% | 67.5% | – | – | CN(Cc1cnc2nc(N)nc(N)c2n1)c1ccc(C(=O)N[C@@H](CCC(=O)N[C@@H](CCC(=O)N[C@@H](CCC(=O)N[C@@H](CCC(=O)N[C@@H](CCC(=O)O)C(=O)O)C(=O)O)C(=O)O)C(=O)O)C(=O)O)cc1 [MTX-PG5] | – |
| not a significant difference | – | – | – | not a significant difference | not a significant difference | CN(Cc1cnc2nc(N)nc(N)c2n1)c1ccc(C(=O)N[C@@H](CCC(=O)N[C@@H](CCC(=O)O)C(=O)O)C(=O)O)cc1 [MTX-PG2] | did not change GGH activity |
